Test results taken from patent US4952580A, “Pesticidal polyhaloalkene derivatives” (priority 1988, dated 1990).
Where two headings read alike, the source gives them in different places.

Assays:
[1] = test system: root-knot nematode (Meloidogyne incognita); test: Initial Root-Knot Nematicidal Activity; format: in vivo; conditions: 336 h, read-out: Percent Control; for pest or weed control at 0.078 ppm: Table 2, Application Rate 0.078 ppm; for pest or weed control at 0.312 ppm: Table 2, Application Rate 0.312 ppm; for pest or weed control at 1.25 ppm: Table 2, Application Rate 1.25 ppm; for pest or weed control at 0.313 ppm: Table 2, Application Rate 0.313 ppm
Procedure: (§1) Compounds of this invention were tested as follows for nematicidal and anthelmintic activity as dust formulations (initial and residual activity) and as acetone/water formulations (systemic activity). The formulations are described above.
The activity against root-knot nematode (Meloidogyne incognita) was determined by incorporating the compound of the invention in nematode infested soil at rates in the range of 10 ppm to 0.078 ppm of compound. Several tomato or cucumber seedlings were planted in the nematode infested soil. Two weeks after planting the test pots were evaluated to ascertain the degree of galling (swelling) on the roots of the plants, indicating the control provided by the test chemical.
The results expressed as precent control (determined by knot index) are set forth as averages in Table 2 (appended). Knot index is a numerical designation assigned at evaluation, having the following meanings:
Percent control is related to knot index as follows:
When the Knot Index is between 0 and 1 it is further subdivided as follows to indicate how close the percent control is to 75% or 100%: […]

[2] = test system: root-knot nematode; test: Residual Root-Knot Nematicidal Activity; format: in vivo, Meloidogyne incognita; conditions: read-out: Percent Control
Procedure: as §1
The ability of nematicidal compounds of the invention to control root-knot nematode infestations in soil over a period of time after treatment was evaluated. Dust formulations of test compound (5%) were incorporated into soil samples at test compound rates of 5 and 10 ppm. Subsequently, the treated soil samples were inoculated with nematode inoculum at weekly intervals, and Knot Index and Percent Control determined on seedlings planted in the soil samples. Specifically, soil treated with test compound was placed in 7.6 cm diameter fiber pots and stored in a greenhouse. At one, two and four weeks post-treatment, the appropriate number of pots was infested with root-knot nematode eggs and larvae. A cucumber or tomato seedling was planted in each pot and evaluated approximately two weeks after the soil infestation to obtain the test results reported in Tables 3 and 3a appended.

[3] = test system: stunt nematode; test: Stunt Nematode Test; format: in vivo; conditions: 672 h, Table 4a; rate 5 ppm; read-out: Percent Control
Procedure: as §1
The procedure was substantially the same as in the […] seedling, with subsequent inoculation of the soil with combined larvae and adult stunt nematodes. The samples were evaulated approximately four weeks after infestation. […] "Percent control" means the difference between average population counts between untreated and treated samples, divided by average population count of untreated sample, multiplied by 100.

[4] = test system: lesion nematode; test: Lesion Nematode Test; format: in vivo; conditions: Table 5, read-out: Percent Control; for pest or weed control at 2.5 ppm: rate 2.5 ppm
Procedure: as §1
The procedure was substantially the same as in the stunt nematode test described above except that pea seedlings were used. The results (Table 5 appended) show good control with many of the compounds at the application rates tested as compared with untreated samples (no control). "Percent Control" is defined as follows: [formula]

[5] = test system: root-knot nematode; test: Soil Mobility against root-knot nematode; format: in vivo, Meloidogyne incognita; conditions: 336 h, read-out: Percent Control
Procedure: as §1
The ability of nematicidal compounds of the invention to move through nematode-infested soil […] infested soil, and subsequently eluting the soil with 15 cm of water (equivalent to 15 cm of rainfall) into a series of two or more pots of untreated, but nematode-infested, soil. Specifically, the pots were 8 cm diameter plastic pots containing a 10 cm^3 layer of sand over a coarse grade filter paper disc. Sufficient soil was placed over the sand to fill the pots, and a second filter paper disc was placed over the soil. Each test compound-treated pot was nested over a series of two or more pots containing untreated, but nematode-infested soil, also containing sand filter paper discs as described for the treated soil pots. Fifteen cm of water was slowly dripped into the top pots and the pots were allowed to drain for 16-18 hours to remove excess water. The top filter of each pot was then removed and the pots were planted with a cucumber or tomato seedling. […] "Knot Index" and "Percent Control" are as defined in the initial root-knot nematode tests above.

[6] = test system: root-knot nematode; test: Systemic Activity (basipetal, foliar spray) against root-knot nematode; format: in vivo, Meloidogyne incognita; conditions: 336 h, read-out: Percent Control; for pest or weed control at 2000 ppm: foliar, Table 8, rate 2000 ppm
Procedure: as §1
Compounds of the invention were tested for basipetal systemic activity against the root-knot nematode. In this test, tomato plants are grown in 10.2 cm diameter fiber pots containing steam-pasteurized soil mix (50%, soil, 50% sand) until 4-6 true leaves appear. Three of the pots are then placed on a turntable in a spray hood and the plants sprayed with 50 ml of water/acetone solution containing the test compound. The soil surface is covered during the spraying to prevent spraying of the soil. After treatment, the potted plants are placed in a lighted drying chamber. The plants are then grown in a growth chamber at 25° C. for three days and inoculated with a standard nematode culture by incorporating the inoculum into the top cm of soil in the pots. The plants are returned to the growth chamber for about two weeks at which time the pots are allowed to dry until the plants begin to wilt. The roots are shaken free of soil and the degree of galling (swelling) noted as compared to galling of untreated control plants. The results are expressed as Knot Index and Percent Control as defined in the initial root-knot nematode activity tests reported above in Table 2.

[7] = test system: Caenorhabditis elegans; test: C. Elegans Nematode Screening Test and Evaluation (in-vitro); conditions: Caenorhabditis elegans; for inhibition at 5 ppm / inhibition at 1.25 ppm / inhibition at 2.5 ppm: read-out: Percent Inhibition of Reproduction; for mortality at 5 ppm / mortality at 1.25 ppm / mortality at 2.5 ppm: read-out: Percent Mortality
Procedure: This in-vitro test using the free-living nematode Caenorhabditis elegans, is a modification of the assay developed by Simpkin and Coles, J. Chem. Tech. […] One milliliter of a test medium consisting of 5 mg ampicillin, 10,000 units of mycostatin and 10 ml of a dense suspension of Escherichia coli per 100 ml of a buffer solution, was pipetted into each well of a 24-well microtiter plate. The candidate nematicide, suspended at the appropriate concentration in dimethylsulfoxide, was added to the wells in […] volumes. Each rate of application was replicated two to three times. After thorough mixing of the contents of each well, 50 to 100 μl of a nematode suspension in a buffer was added so that each well received 10-15 nematodes. After the nematodes were added, the microtiter plates were incubated at 20° C. for 5-6 days.
The effect of the candidate nematicide on the survival and the reproduction of C. elegans was then evaluated by comparison of the level of population developed in the treated wells with that in untreated wells. Specific effects on population development, such as reduced egg hatch or molting disruption, were noted if they were evident.

[8] = test system: cyst nematode; test: Cyst Nematode Test; format: in vivo; conditions: Table 6; rate 5 ppm; read-out: Percent Control
Procedure: as §1
The procedures was substantially the same as described in the stunt nematode test except soybean seedlings were used. "Percent Control" (Table 6 appended) is as defined in the stunt nematode test results.

[9] = Table 2, Application Rate 0.156 ppm
[10] = Table 2, Application Rate 0.625 ppm
[11] = Table 2, Application Rate 2.5 ppm
[12] = 672 h, Table 3, inoculation 4 weeks after treatment

FC(F)=C(F)CCSc1nnc(SCc2ccccc2)s1 [Compound 32, 2-phenylmethylthio-5-(3,4,4-trifluoro-3-butenylthio)-1,3,4-thiadiazole]
pest or weed control at 0.078 ppm [1]: 8%
pest or weed control at 0.156 ppm [1, 9]: 31%
pest or weed control at 0.312 ppm [1]: 78%
pest or weed control at 0.625 ppm [1, 10]: 97%
pest or weed control at 1.25 ppm [1]: 99%
pest or weed control at 2.5 ppm [1, 11]: 100%
pest or weed control at 5 ppm ([2]; 168 h, Table 3a, 5% dust, inoculation 1 week post-treatment): 99%
pest or weed control at 5 ppm ([2]; 336 h, Table 3a, 5% dust, inoculation 2 weeks post-treatment): 99%
pest or weed control at 5 ppm ([2]; 672 h, Table 3a, 5% dust, inoculation 4 weeks post-treatment): 82%
pest or weed control at 5 ppm [3]: 84%
pest or weed control at 1.25 ppm ([4]; rate 1.25 ppm): 0%
pest or weed control at 2.5 ppm [4]: 28%
pest or weed control at 0.625 ppm ([4]; rate .625 ppm): 0%
pest or weed control at 5 ppm ([5]; Table 7a, 5% dust, 5 ppm, BOTTOM container): 25%
pest or weed control at 5 ppm ([5]; Table 7a, 5% dust, 5 ppm, MIDDLE container): 75%
pest or weed control at 5 ppm ([5]; Table 7a, 5% dust, 5 ppm, TOP container): 99%
pest or weed control at 2000 ppm [6]: 25%
inhibition at 5 ppm ([7]; Table 9 screen): 100%
mortality at 5 ppm ([7]; Table 9 screen): 100%
mortality at 5 ppm ([7]; Table 10 evaluation): 8%
inhibition at 1.25 ppm ([7]; Table 10 evaluation): 25%
mortality at 1.25 ppm ([7]; Table 10 evaluation): 0%
inhibition at 2.5 ppm ([7]; Table 10 evaluation): 42%
mortality at 2.5 ppm ([7]; Table 10 evaluation): 0%

FC(F)=C(F)CCSc1nnc(SCCC(F)=C(F)F)s1 [Compound 13, 2,5-di(3,4,4-trifluoro-3-butenylthio)-1,3,4-thiadiazole]
pest or weed control at 0.078 ppm [1]: 0%
pest or weed control at 0.156 ppm [1, 9]: 13%
pest or weed control at 0.313 ppm [1]: 71%
pest or weed control at 0.625 ppm [1, 10]: 96%
pest or weed control at 1.25 ppm [1]: 99%
pest or weed control at 2.5 ppm [1, 11]: 99%
pest or weed control at 0.625 ppm [1]: 95%
pest or weed control at 5 ppm ([2]; 168 h, Table 3, inoculation 1 week after treatment): 98%
pest or weed control at 10 ppm ([2]; 168 h, Table 3, 10 ppm, inoculation 1 week after treatment): 99%
pest or weed control at 5 ppm ([2]; 336 h, Table 3, inoculation 2 weeks after treatment): 98%
pest or weed control at 10 ppm ([2]; 336 h, Table 3, 10 ppm, inoculation 2 weeks after treatment): 99%
pest or weed control at 5 ppm [2, 12]: 75%
pest or weed control at 10 ppm ([2]; 672 h): 95%
pest or weed control at 2000 ppm [6]: 79%

FC(F)=C(F)CCSc1nnc(SCC2CC2)s1 [Compound 15, 2-cyclopropylmethylthio-5-(3,4,4-trifluoro-3-butenylthio)-1,3,4-thiadiazole]
pest or weed control at 0.313 ppm [1]: 6%
pest or weed control at 0.625 ppm [1, 10]: 31%
pest or weed control at 1.25 ppm [1]: 97%
pest or weed control at 2.5 ppm [1, 11]: 100%
pest or weed control at 2000 ppm [6]: 83%

FC(F)=C(F)CCSc1nc(Cl)ns1 [Compound 8, 3-chloro-5-(3,4,4-trifluoro-3-butenylthio)-1,2,4-thiadiazole]
pest or weed control at 0.078 ppm [1]: 58%
pest or weed control at 0.312 ppm [1]: 100%
pest or weed control at 0.625 ppm [1, 10]: 100%
pest or weed control at 1.25 ppm [1]: 100%
pest or weed control at 2.5 ppm [1, 11]: 100%
pest or weed control at 0.156 ppm [1]: 95%
pest or weed control at 5 ppm [2, 12]: 98%
pest or weed control at 5 ppm [8]: 92%
pest or weed control at 5 ppm ([5]; Table 7, 5 ppm, Bottom container): 96%
pest or weed control at 5 ppm ([5]; Table 7, 5 ppm, Middle container): 100%
pest or weed control at 5 ppm ([5]; Table 7, 5 ppm, Top container): 100%

FC(F)=C(F)CCSc1nnc(-c2ccccc2)o1 [Compound 16, 2-phenyl-5-(3,4,4-trifluoro-3-butenylthio)-1,3,4-oxadiazole]
pest or weed control at 0.313 ppm [1]: 0%
pest or weed control at 0.625 ppm [1, 10]: 25%
pest or weed control at 1.25 ppm [1]: 44%
pest or weed control at 2.5 ppm [1]: 95%
pest or weed control at 2000 ppm [6]: 67%

FC(F)=C(F)CCSc1nnc(SCc2ccc(Br)cc2)s1 [Compound 33, 2-(4-bromophenylmethylthio)-5-(3,4,4-trifluoro-3-butenylthio)-1,3,4-thiadiazole]
pest or weed control at 0.312 ppm [1]: 38%
pest or weed control at 0.625 ppm [1, 10]: 70%
pest or weed control at 1.25 ppm [1]: 84%
pest or weed control at 2.5 ppm [1, 11]: 97%
pest or weed control at 5 ppm [3]: 52%
pest or weed control at 2.5 ppm [4]: 46%
pest or weed control at 2500 ppm ([6]; Table 8, rate 2500 ppm): 17%
inhibition at 5 ppm ([7]; Table 9 screen): 100%
mortality at 5 ppm ([7]; Table 9 screen): 100%
mortality at 5 ppm ([7]; Table 10 evaluation): 100%
inhibition at 1.25 ppm ([7]; Table 10 evaluation): 100%
mortality at 1.25 ppm ([7]; Table 10 evaluation): 100%
inhibition at 2.5 ppm ([7]; Table 10 evaluation): 100%
mortality at 2.5 ppm ([7]; Table 10 evaluation): 100%

FC(F)=C(F)CCSc1nnc(-c2ccc(Cl)cc2)o1 [Compound 17, 2-(4-chlorophenyl)-5-(3,4,4-trifluoro-3-butenylthio)-1,3,4-oxadiazole]
pest or weed control at 2.5 ppm [1, 11]: 100%
pest or weed control at 5 ppm ([1]; Table 2, Application Rate 5.0 ppm): 100%
pest or weed control at 10 ppm ([1]; Table 2, Application Rate 10.0 ppm): 100%
pest or weed control at 2000 ppm [6]: 42%
